In US20160264536A1, “HETEROCYCLIC COMPOUND” (Takeda Pharmaceutical Company Limited, priority 2013, published 2016):

These molecules were tested against T1, human PDE2A3 enzyme (Homo sapiens, UniProt O00408) (assay: PDE enzyme inhibitory assay (SPA, [3H]cGMP substrate)). Settings: compound 1 μM, substrate [3H]cGMP 77 nM, read-out: inhibitory rate (%) (1 μM).
T1 construct: Human PDE2A3 full-length gene was transduced into Sf9; His-tag; made in house; host or cells: Sf9 insect cells
Type: biochemical
Experimental: PDE Enzyme Inhibitory Assay
Human PDE2A3 full-length gene was transduced into Sf9, and human PDE2A3 enzyme was purified by His-tag affinity column and gel filtration. The enzyme was stored at −70° C. until use. PDE activity was measured by using a SPA (Scintillation Proximity Assay) (GE Healthcare). To evaluate the inhibitory activity of the compound, 10 μl of serial diluted compounds were reacted with 20 μl of PDE enzyme in assay buffer (50 mM HEPES-NaOH, 8.3 mM MgCl2, 1.7 mM EGTA, 0.1% BSA (pH 7.4)) for 30 min at room temperature. Final concentration of DMSO in the reaction solution was 1%. Compounds were tested in duplicate in 96-well half-area plates (Corning) or 384-well OptiPlate (PerkinElmer). To start the reaction, 10 μl of substrate [^3H]cGMP (final concentration 77 nM, PerkinElmer) was added to a total volume of 40 μl. After reaction for 60 min at room temperature, 20 μl of 20 mg/mL yttrium SPA beads containing zinc sulfate was added to terminate the reaction. After being settled for further 1 hour, the assay plates were counted in a scintillation counter (PerkinElmer) to allow calculation of inhibition rate. Inhibition rate was calculated on the basis of 0% control wells with enzyme and DMSO, and 100% control wells without enzyme.

T1 sequence (O00408 whole entry): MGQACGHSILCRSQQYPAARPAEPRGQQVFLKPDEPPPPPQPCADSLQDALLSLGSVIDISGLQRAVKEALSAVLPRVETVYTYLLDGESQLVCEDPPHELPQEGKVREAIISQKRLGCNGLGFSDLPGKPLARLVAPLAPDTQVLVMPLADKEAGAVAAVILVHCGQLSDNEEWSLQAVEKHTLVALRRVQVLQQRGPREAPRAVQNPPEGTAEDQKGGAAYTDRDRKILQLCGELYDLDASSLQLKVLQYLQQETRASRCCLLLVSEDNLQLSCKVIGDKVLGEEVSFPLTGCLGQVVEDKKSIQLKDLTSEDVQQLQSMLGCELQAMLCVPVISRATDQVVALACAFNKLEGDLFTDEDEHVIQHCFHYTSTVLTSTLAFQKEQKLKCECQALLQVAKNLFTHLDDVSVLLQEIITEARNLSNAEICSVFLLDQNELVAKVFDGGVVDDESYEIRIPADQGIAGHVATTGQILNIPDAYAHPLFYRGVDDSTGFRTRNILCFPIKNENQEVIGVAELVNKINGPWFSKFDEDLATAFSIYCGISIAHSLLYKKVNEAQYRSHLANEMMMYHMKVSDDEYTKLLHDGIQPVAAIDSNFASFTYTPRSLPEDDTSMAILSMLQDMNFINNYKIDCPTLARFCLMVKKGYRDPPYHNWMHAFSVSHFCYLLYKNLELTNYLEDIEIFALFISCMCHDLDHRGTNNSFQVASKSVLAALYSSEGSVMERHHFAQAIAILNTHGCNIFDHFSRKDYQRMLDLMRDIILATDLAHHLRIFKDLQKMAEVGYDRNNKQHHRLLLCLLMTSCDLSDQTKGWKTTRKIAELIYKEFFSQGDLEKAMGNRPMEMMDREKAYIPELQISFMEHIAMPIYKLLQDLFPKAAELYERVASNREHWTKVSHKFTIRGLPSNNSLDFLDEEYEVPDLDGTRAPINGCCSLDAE

Row | SMILES | inhibition at 1 µM
1 | COC[C@@H](NC(=O)c1cc(=O)[nH]c(-c2ccoc2)n1)c1ccc(OC(F)(F)F)c(F)c1 [Example 122, N-((1S)-1-(3-fluoro-4-(trifluoromethoxy)phenyl)-2-methoxyethyl)-2-(3-furyl)-6-oxo-1,6-dihydropyrimidine-4-carboxamide] | 102%
2 | COCC(NC(=O)c1cc(=O)[nH]c(C2=CCCC2)n1)c1ccc(-n2cccn2)c(F)c1 (centres unmarked) [Example 129, 2-(cyclopent-1-en-1-yl)-N-(1-(3-fluoro-4-(1H-pyrazol-1-yl)phenyl)-2-methoxyethyl)-6-oxo-1,6-dihydropyrimidine-4-carboxamide] | 98%
3 | COC[C@@H](NC(=O)c1cc(=O)[nH]c(-c2ncc(OC)cc2OC)n1)c1ccc(OC(F)(F)F)c(F)c1 [Example 152, 2-(3,5-dimethoxypyridin-2-yl)-N-((1S)-1-(3-fluoro-4-(trifluoromethoxy)phenyl)-2-methoxyethyl)-6-oxo-1,6-dihydropyrimidine-4-carboxamide] | 96%
4 | COC[C@@H](NC(=O)c1cc(=O)[nH]c(C2(C)CC2)n1)c1ccc(OC(F)(F)F)cc1 [Example 153, N-((1S)-2-methoxy-1-(4-(trifluoromethoxy)phenyl)ethyl)-2-(1-methylcyclopropyl)-6-oxo-1,6-dihydropyrimidine-4-carboxamide] | 100%
5 | Cn1cc(-c2cncc(C(=O)N[C@@H](c3ccc(OC(F)(F)F)c(F)c3)C(C)(C)O)n2)cn1 [Example 158, N-((1S)-1-(3-fluoro-4-(trifluoromethoxy)phenyl)-2-hydroxy-2-methylpropyl)-6-(1-methyl-1H-pyrazol-4-yl)pyrazine-2-carboxamide] | 97%
6 | CO[C@H]1CCN(c2cncc(C(=O)N[C@@H](c3ccc(OC(F)(F)F)c(F)c3)C(C)(C)O)n2)C1 [Example 163, N-((1S)-1-(3-fluoro-4-(trifluoromethoxy)phenyl)-2-hydroxy-2-methylpropyl)-6-((3S)-3-methoxypyrrolidin-1-yl)pyrazine-2-carboxamide] | 94%
7 | COC[C@@H](NC(=O)c1cc(=O)[nH]c(C2=CCC(OC)C2)n1)c1ccc(OC(F)(F)F)c(F)c1 (stereo partly drawn) [Example 171, N-((1S)-1-(3-fluoro-4-(trifluoromethoxy)phenyl)-2-methoxyethyl)-2-(4-methoxycyclopent-1-en-1-yl)-6-oxo-1,6-dihydropyrimidine-4-carboxamide] | 103%
8 | COC[C@@H](NC(=O)c1cc(=O)[nH]c(-c2ncc(OC)cc2F)n1)c1ccc(OC(F)(F)F)c(F)c1 [Example 178, 2-(3-fluoro-5-methoxypyridin-2-yl)-N-((1S)-1-(3-fluoro-4-(trifluoromethoxy)phenyl)-2-methoxyethyl)-6-oxo-1,6-dihydropyrimidine-4-carboxamide] | 99%
9 | COC[C@@H](NC(=O)c1cc(=O)[nH]c(-c2ncc(OC)cc2C)n1)c1ccc(OC(F)(F)F)c(F)c1 [Example 179, N-((1S)-1-(3-fluoro-4-(trifluoromethoxy)phenyl)-2-methoxyethyl)-2-(5-methoxy-3-methylpyridin-2-yl)-6-oxo-1,6-dihydropyrimidine-4-carboxamide] | 94%
10 | COC[C@@H](NC(=O)c1cc(=O)[nH]c(-c2ncc(OC)cc2Cl)n1)c1ccc(OC(F)(F)F)c(F)c1 [Example 184, 2-(3-chloro-5-methoxypyridin-2-yl)-N-((1S)-1-(3-fluoro-4-(trifluoromethoxy)phenyl)-2-methoxyethyl)-6-oxo-1,6-dihydropyrimidine-4-carboxamide] | 95%
11 | COC[C@@H](NC(=O)c1cc(=O)[nH]c(-c2ncc(C3CC3)cc2F)n1)c1ccc(OC(F)(F)F)c(F)c1 [Example 185, 2-(5-cyclopropyl-3-fluoropyridin-2-yl)-N-((1S)-1-(3-fluoro-4-(trifluoro-methoxy)phenyl)-2-methoxyethyl)-6-oxo-1,6-dihydropyrimidine-4-carboxamide] | 94%
12 | COC[C@@H](NC(=O)c1cc(=O)[nH]c(-c2ncc(OC(F)F)cc2F)n1)c1ccc(OC(F)(F)F)c(F)c1 [Example 186, 2-(5-(difluoromethoxy)-3-fluoropyridin-2-yl)-N-((1S)-1-(3-fluoro-4-(trifluoro-methoxy)phenyl)-2-methoxyethyl)-6-oxo-1,6-dihydropyrimidine-4-carboxamide] | 92%
13 | CCOc1cnc(-c2nc(C(=O)N[C@H](COC)c3ccc(OC(F)(F)F)c(F)c3)cc(=O)[nH]2)c(OCC)c1 [Example 187, 2-(3,5-diethoxypyridin-2-yl)-N-((1S)-1-(3-fluoro-4-(trifluoromethoxy)phenyl)-2-methoxyethyl)-6-oxo-1,6-dihydropyrimidine-4-carboxamide] | 105%
14 | COC[C@@H](NC(=O)c1cc(=O)[nH]c(-c2ncc(C3CC3)cc2OC)n1)c1ccc(OC(F)(F)F)c(F)c1 [Example 189, 2-(5-cyclopropyl-3-methoxypyridin-2-yl)-N-((1S)-1-(3-fluoro-4-(trifluoro-methoxy)phenyl)-2-methoxyethyl)-6-oxo-1,6-dihydropyrimidine-4-carboxamide] | 99%
